Measured values published in patent publication US5474988A, “5-phenylpyrrolo-1,4-benzoxazine and 5-phenylpyrrolo-1,4-benzothiazine compounds, process and intermediates for their production and pharmaceutical compositions containing them” (Kali-Chemie Pharma GmbH, priority 1993, dated 1995).

Legend:
[1] = test system: P.A.F.-induced aggregation of blood platelets; test: anti-P.A.F. action in vitro (P.A.F.-induced platelet aggregation); type: cell-based; details: Oryctolagus cuniculus, 10^-5 mole/liter, read-out: Anti-P.A.F. activity in vitro, % inhibition of the P.A.F.-induced aggregation of blood platelets from rabbit blood
In short: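 Washed rabbit platelets (4×10^9/ml stock suspension, aspirin-lysine treated) in modified Tyrode buffer pH 7.4 with 1.3 mM CaCl2 and gelatine; test substance at 10^-5 mol/l final, 90 s preincubation before P.A.F. Aggregation followed 4-5 min by aggregometer; % inhibition of P.A.F.-induced aggregation increase calculated.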

[2] = test system: cutaneous histamine induced anaphylactoid reactions; test: inhibition of the anaphylactoid cutaneous reaction induced by histamine; type: in vivo, Sprague-Dawley rats; details: Rattus norvegicus, po, 0.5 h; 2 × 10^-5 mole/kg p.o., one hour before histamine; assessed 30 minutes after provocation; read-out: Inhibitory action against cutaneous histamine induced anaphylactoid reactions in rats, % inhibition
Description: 1. Determination of the inhibition of the anaphylactoid cutaneous reaction induced by histamine.
The inhibition of the anaphylactoid cutaneous reaction induced by histamine was determined in Sprague-Dawley rats having body weights of 150-180 g.
In order to determine the histamine-induced anaphylactoid skin reaction, 50 μl of a physiological saline solution containing 0.8 mg/ml of histamine were injected into the animals intradermally on one flank. Immediately afterward, a solution of 26.4 mg/kg of a blue dye (Evan's Blue) was administered i.v. to the animals.
The test substances were dissolved in distilled water which contains 1% by volume of dimethylformamide and 1% by volume of Tween®20 (=polyoxyethylene(20) sorbitan monolaurate). One hour before the histamine injection, each animal received 2×10^-5 mol/kg of test substance, in each case administered orally in 0.5 ml of solution. A control group received only the solvent for comparison.
The histamine-induced anaphylactoid reactions which manifested themselves by edema formation, swelling and exudation of blue dye are assessed 30 minutes after provocation by the histamine injection. This is carried out by visual determination of the extent of the exudation of blue dye at the sites of edema formation. With the aid of comparison scales, the percentage inhibition of the anaphylactoid reactions produced by the test substances is determined in comparison with the reactions of the control animals not treated with test substance.
The results obtained with compounds of the formula I by the above test method are reproduced in the following table A. The example numbers given as identifiers for the compounds of formula I refer to the subsequent preparative examples.

| SMILES | inhibition at 10 µM [1] [%] | inhibition in vivo at 20 µmol/kg [2] [%] |
| --- | --- | --- |
| COc1ccc2c3c1c(C)c(-c1ccc(O)cc1)n3CC(CCN1CCN(c3cc(C)ccn3)CC1)O2 (centres unmarked) [Example 3, 2,3-Dihydro-5-(4-hydroxyphenyl)-7-methoxy-6-methyl-2-[2-(4-(4-methylpyridin-2-yl)piperazin-1-yl)ethyl]pyrrolo[1,2,3-de]-1,4-benzoxazine] | 92 |  |
| Cc1ccnc(N2CCN(CCC3Cn4c(-c5ccc(O)cc5)c(C)c5c(O)ccc(c54)O3)CC2)c1 (centres unmarked) [Example 4, 2,3-Dihydro-7-hydroxy-5-(4-hydroxyphenyl)-6-methyl-2-[2-(4-(4-methylpyridin-2-yl)piperazin-1-yl)ethyl]pyrrolo[1,2,3-de]-1,4-benzoxazine] | 99 |  |
| Cc1ccnc(N2CCN(C(=O)CCCC3Cn4c(-c5cc(C)c(O)c(C)c5)c(C)c5cccc(c54)O3)CC2)c1 (centres unmarked) [Example 9, 2,3-Dihydro-5-(3,5-dimethyl-4-hydroxyphenyl)-6-methyl-2-[4-(4-(4-methylpyridin-2-yl)piperazin-1-yl)-4-oxobutyl]-pyrrolo[1,2,3-de]-1,4-benzoxazine] | 67 |  |
| COc1cc(-c2c(C)c3cccc4c3n2CC(CCN2CCN(c3cc(C)ccn3)CC2)O4)ccc1O (centres unmarked) [Example 12] | 93 |  |
| Cc1ccnc(N2CCN(CCC3Cn4c(-c5ccc(O)c(O)c5)c(C)c5cccc(c54)O3)CC2)c1 (centres unmarked) [Example 13] | 94 |  |
| Cc1ccnc(N2CCN(C(=O)CCC3Cn4c(-c5ccc(O)cc5)c(C)c5cccc(c54)O3)CC2)c1 (centres unmarked) [Example 15] | 100 | 32 |
| Cc1ccnc(N2CCN(CCC3Cn4c(-c5cc(C)c(O)c(C)c5)c(C)c5cccc(c54)O3)CC2)c1 (centres unmarked) [Example 20] | 92 |  |
| Cc1cc(-c2c(C)c3cccc4c3n2CC(CCCC(=O)N2CCN(c3ccccn3)CC2)O4)cc(C)c1O (centres unmarked) [Example 23] | 66 |  |
| Cc1ccnc(N2CCN(C(=O)CCC3Cn4c(-c5cc(C)c(O)c(C)c5)c(C)c5cccc(c54)O3)CC2)c1 (centres unmarked) [Example 25] | 91 | 30 |
| Cc1cc(-c2c(C)c3cccc4c3n2CC(CCC(=O)N2CCN(c3ccccn3)CC2)O4)cc(C)c1O (centres unmarked) [Example 26] | 82 |  |
| Cc1cc(-c2c(C)c3c(F)ccc4c3n2CC(CCN2CCN(c3ccccn3)CC2)O4)cc(C)c1O (centres unmarked) [Example 27] |  | 55 |
| Cc1ccnc(N2CCN(CCC3Cn4c(-c5cc(C)c(O)c(C)c5)c(C)c5c(F)ccc(c54)O3)CC2)c1 (centres unmarked) [Example 28] | 83 |  |
| Cc1ccnc(N2CCN(CCCC3Cn4c(-c5cc(C)c(O)c(C)c5)c(C)c5c(F)ccc(c54)O3)CC2)c1 (centres unmarked) [Example 29] | 50 | 46 |
| Cc1ccc(N2CCN(C(=O)CCC3Cn4c(-c5ccc(O)cc5)c(C)c5cccc(c54)O3)CC2)nc1 (centres unmarked) [Example 34] | 77 |  |
| COc1cc(-c2c(C)c3cccc4c3n2CC(CCC(=O)N2CCN(c3ccc(C)cn3)CC2)O4)ccc1O (centres unmarked) [Example 39] |  | 32 |
| Cc1ccnc(N2CCN(CCC3Cn4c(-c5cc(C)c(O)c(C)c5)c(C)c5cc(F)cc(c54)O3)CC2)c1 (centres unmarked) [Example 42] | 40 | 36 |
| COc1cc2c3c(c1)c(C)c(-c1cc(C)c(O)c(C)c1)n3CC(CCN1CCN(c3cc(C)ccn3)CC1)O2 (centres unmarked) [Example 43] | 95 | 32 |
| Cc1ccnc(N2CCN(CCC3Cn4c(-c5cc(C)c(O)c(C)c5)c(C)c5cc(O)cc(c54)O3)CC2)c1 (centres unmarked) [Example 44] | 99 | 37 |
| Cc1cc(-c2c(C)c3cccc4c3n2CC(CCCCN2CCN(c3ccccn3)CC2)O4)cc(C)c1O (centres unmarked) [Example 65] | 52 |  |
| Cc1ccnc(N2CCN(C(=O)CCC3Cn4c(-c5cc(C)c(O)c(C)c5)c(C)c5c(O)ccc(c54)O3)CC2)c1 (centres unmarked) [Example 67] | 97 |  |
| Cc1ccnc(N2CCN(C(=O)CCC3Cn4c(-c5ccc(O)cc5)c(C)c5c(O)ccc(c54)O3)CC2)c1 (centres unmarked) [Example 69] | 97 |  |
| Cc1cc(-c2c(C)c3c(O)ccc4c3n2CC(CCC(=O)N2CCN(c3ccccn3)CC2)O4)cc(C)c1O (centres unmarked) [Example 71] | 84 |  |
| COc1cc(-c2c(C)c3c(O)ccc4c3n2CC(CCC(=O)N2CCN(c3ccccn3)CC2)O4)cc(C)c1O (centres unmarked) [Example 72] | 79 |  |
